# Assay results published in patent publication US20110313153A1, “5-HT4 INHIBITORS FOR TREATING AIRWAY DISEASES, IN PARTICULAR ASTHMA” (priority 2009, published 2011).
# Entries after “also recorded” stand apart in the source; their conditions may differ.
# Legend:
# [1] = test system: dog; assay: Canine antral motility measured with chronically implanted strain gauges; type: in vivo; conditions: data not shown
# Excerpt: (§1) Also the aroylated 4-aminomethylpiperidines 5-HT4 receptor antagonists (hereinafter also referred to as the compounds) of the present invention (e.g. compound M0014) were capable to suppress or inverse the 5-HT4 R-mediated prokinetic activity of serotonin or 5-HT4 R agonists in the GI tract (data not shown). For example, in conscious dogs, low doses of M0014 reversed the selective serotonin re-uptake inhibitor (SSRI)-induced loss of fundic compliance. […] As a final example, the compound reversed the 5-HT4 R agonist-induced stimulation of canine antral motility, measured with chronically implanted strain gauges.
# [2] = test system: OVA-sensitized mice; assay: Bronchial hyperreactivity (BHR) to i.v. metacholine, dynamic resistance and compliance; type: in vivo, BALB/c mice; conditions: M0014 prior to each allergen challenge; measured 24 hours after the last OVA aerosol; FIG. 2
# Protocol: (§2) BALB/c mice (n=6-8 per group) were sensitized to OVA by i.p. injection of OVA/alum (10 μg OVA grade V adsorbed to 1 mg aluminium hydroxide; Sigma-Aldrich) on days 0 and 7 and were subjected to OVA aerosol challenges (grade III) on days 17-19; aerosol challenges were dispensed from a jet nebulizer delivering 1% OVA in PBS for 30 minutes. Thirty minutes before each OVA exposure, mice were anesthetized using Avertin (Sigma-Aldrich) and received an i.t. injection of control vehicle, or of M0014 (0.1, 0.4 or 4 nM in PBS) in a volume of 80 μl. Twenty-four hours after the last OVA exposure, BAL was performed and LNs were resected and digested using collagenase/DNAse.
# For the measurement of dynamic resistance and compliance, mice were anesthetized with urethane, paralyzed using d-tubocurarine, tracheotomized, and intubated with an 18-gauge catheter, followed by mechanical ventilation with a Flexivent apparatus (SCIREQ). Respiratory frequency was set at 120 breaths per min with a tidal volume of 0.2 ml and a positive end-expiratory pressure of […]. Increasing concentrations of metacholine were administered via the jugular vein. Dynamic resistance and compliance was recorded after a standardized inhalation maneuver given every 10 seconds for 2 minutes. Baseline resistance was restored before administering the subsequent doses of metacholine.
# [3] = test system: dog; assay: Dog model of delayed gastric emptying of a liquid meal; type: in vivo; conditions: data not shown
# Excerpt: as §1
# [4] = test system: OVA-sensitized mice; assay: OVA-induced experimental asthma in mice: BAL cell infiltrate and MLN cytokines; type: in vivo, BALB/c mice
# Protocol: as §2
# Flow cytometry and sorting. After counting and washing, BAL cells were stained for 30 minutes with FITC-labeled anti-I-Ad/I-Ed (macrophages/DCs), PE-labeled anti-CCR3 (eosinophils), Cy-chrome-labeled anti-CD3 and anti-CD19 (lymphocytes), and allophycocyanin-labeled (APClabeled) anti-CD11c (macrophages/DCs) in PBS containing 0.5% BSA and 0.01% sodium azide. Differential cell counts were analyzed by flow cytometry, as previously described (van Rijt et al., 2004).
# Cytokine measurements. To measure cytokine levels, MLN cells were plated in round-bottomed 96-well plates (1×10^6 cells/ml) and restimulated with OVA (10 μg/ml) for 4 days. The presence of IL-4, IL-5, IL-13 and IFN-γ was assayed on supernatants by ELISA (BD).
# [5] = test system: GI tract; assay: Effect of the antagonist by itself on the studied GI functions; type: in vivo, dog; conditions: without agonist
# Excerpt: as §1
# Similar to SB-207266, the 5-HT4 R antagonist M0014 had by itself no effect on the studied GI functions mentioned above.
# [6] = test system: Balb/c mice; assay: Zymosan induced inflammatory cell recruitment to the lung; type: in vivo, Female Balb/c mice
# Protocol: Female Balb/c mice (7-8 weeks; 20 g) were used in all studies. The animals were kept in standard animal holding facilities and have unlimited access to food and water. Animals were randomized to receive vehicle or 0.1-0.2 ml/20 g mouse, M0014 (0.001, 0.01, 0.1 and 1 mg/kg) via the oral route 30 min prior to, and 6 h after the administration of zymosan (i.n; 20 μL to each nostril, to give a total volume of administration of 40 μL). Animals received zymosan A to give a total dose of 4 mg/mouse.
# 5 mg of M0014 was dissolved in 5 mL of sterile water to give 1 mg/ml solution. The solutions were prepared freshly each time. The 1 mg/ml solution was diluted to a 0.1, 0.01, 0.001 and 0.0001 mg/ml solution. From these concentrations, 0.2 ml was administered orally to obtain 1, 0.1, 0.01 and 0.001 mg/kg respectively. Sterile water used as control vehicle.
# Twenty-four hours after dosing, the mice were killed by overdose with an injectable anaesthetic and 0.5 ml of saline was injected into lung via a tracheal cannula and the fluid collected. This was repeated 3 times. Approximately 1 ml of lavage fluid was collected and stored on ice. Total cells and differential cells were counted and a reduction in neutrophil numbers was the primary end point.
# [7] = test system: conscious dogs; assay: SSRI-induced loss of fundic compliance in conscious dogs; type: in vivo, dog; conditions: low doses, data not shown
# Excerpt: as §1
# [8] = test system: guinea-pigs; conditions: antigen induced, guinea pig model; cited from earlier work
# [9] = test system: human airway epithelial cells, dendritic cells, monocytes; conditions: no effect of the antagonist per se described; cited from earlier work
# [10] = test system: GI tract; conditions: Sanger et al., cited from earlier work
# [11] = MLN cells restimulated with OVA for 4 days, ELISA, FIG. 1C and D
# [12] = i.t. 80 μl, 0.1, 0.4 or 4 nM, 30 minutes prior to each allergen challenge, FIG. 1A
smiles,measurement,setting,value
"COCCCN1CC[C@@H](CNC(=O)c2cc(C)cc3c2OCCCO3)[C@H](O)C1 (relative stereo) [M0014, (3S-trans)-8-methyl-3,4-dihydro-3H-benzo[b][1,4]dioxepine-6-carboxylic acid [3-hydroxy-1-(3-methoxy-propyl)-piperidine-4-ylmethyl]-amide]",5-HT4 R agonist-induced stimulation of canine antral motility,[1],reversed
same,OVA-induced change in metacholine responsiveness,[2],markedly attenuated
same,5-HT4 R agonist-induced acceleration of gastric emptying,[3],potently inhibited
same,IFN-γ production in the MLNs,[4]; [11],weak increase
same,levels of IL-4 in the MLNs,[4]; [11],mildly but significantly reduced
same,levels of IL-5 in the MLNs,[4]; [11],mildly but significantly reduced
same,levels of IL-13 in the MLNs,[4]; [11],mildly but significantly reduced
same,eosinophil infiltrate into the BAL compartment,[4]; [12],significant dose-dependent reduction
same,lymphocyte infiltrate into the BAL compartment,[4]; [12],significant dose-dependent reduction
same,macrophage infiltrate into the BAL compartment,[4]; [12],significant dose-dependent reduction
same,effect by itself on the studied GI functions,[5],no effect
same,neutrophil cell number,"[6]; FIG. 3 legend, <0.05 cf zymosan alone",significant effect
same,total number of cells recruited to the airways,"[6]; oral, 0.01 and 0.1 mg/kg, 30 min prior to and 6 h after zymosan, P<0.05 Dunnett's test versus control, FIG. 3a",significant effect; also recorded: significantly reduced
same,decrease in the recruitment of neutrophils to the airways,"[6]; oral, 0.01 and 0.1 mg/kg, P<0.01 Dunnett's test vs control, FIG. 3c",40-50%
same,SSRI-induced loss of fundic compliance,[7],reversed
Cn1cc(C(=O)OCC2CCN(CCNS(C)(=O)=O)CC2)c2ccccc21 [GR113808],airway hyperresponsiveness,[8],capable to normalize
COc1cc(COc2cc(N)c(Cl)cc2C(=O)CCC2CCN(CCNS(C)(=O)=O)CC2)cc(OC)c1 [RS 39604],effects of 5-HT,[9],inhibit
CCCCN1CCC(CNC(=O)c2c3n(c4ccccc24)CCCO3)CC1 [piboserod],5-HT4 R-mediated effects of serotonin (5-HT) in the GI tract,"[10]; 2000, Bharucha et al.",antagonizes
same,normal bowel motility,"[10]; animals or humans, 1998",does not seem to affect
